Data: ChEMBL document CHEMBL1201861, “Genomics of Drug Sensitity in Cancer screening data, Wellcome Trust Sanger Institute”

Assays:
Experiment in all cases: cells
AGS = type: functional, cell-based, Homo sapiens; settings: Homo sapiens, AGS;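 further: growth inhibition of AGS cells, determined with a cell viability assay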
Description: SANGER: Inhibition of human AGS cell growth in a cell viability assay.

HTC-C3 = type: functional, cell-based, Homo sapiens; settings: Homo sapiens, HTC-C3;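 further: inhibition of cell growth, read out with a cell viability assay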
Description: SANGER: Inhibition of human HTC-C3 cell growth in a cell viability assay.

OE33 = type: functional, cell-based, Homo sapiens; settings: Homo sapiens, OE33;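 further: growth inhibition of human OE33 cells, measured by a cell viability assay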
Description: SANGER: Inhibition of human OE33 cell growth in a cell viability assay.

NCI-H1651 = type: functional, cell-based, Homo sapiens; settings: Homo sapiens, NCI-H1651;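 further: Read-out is a cell viability assay, with IC50 expressing inhibition of NCI-H1651 cell growth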
Description: SANGER: Inhibition of human NCI-H1651 cell growth in a cell viability assay.

SCC-4 = type: functional, cell-based, Homo sapiens; settings: Homo sapiens, SCC-4;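 further: growth inhibition of human SCC-4 cells, read out as cell viability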
Description: SANGER: Inhibition of human SCC-4 cell growth in a cell viability assay.

UACC-893 = type: functional, cell-based, Homo sapiens; settings: Homo sapiens, UACC-893
Description: SANGER: Inhibition of human UACC-893 cell growth in a cell viability assay.

NCI-H2030 = type: functional, cell-based, Homo sapiens; settings: Homo sapiens, NCI-H2030;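 further: growth inhibition of human NCI-H2030 cells, read out by a cell viability assay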
Description: SANGER: Inhibition of human NCI-H2030 cell growth in a cell viability assay.

A-427 = type: functional, cell-based, Homo sapiens; settings: Homo sapiens, A-427;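 further: growth inhibition of human A-427 cells, read out by a cell viability assay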
Description: SANGER: Inhibition of human A427 cell growth in a cell viability assay.

GMS-10 = type: functional, cell-based, Homo sapiens; settings: Homo sapiens, GMS-10;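 further: growth inhibition of GMS-10 cells, read out as cell viability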
Description: SANGER: Inhibition of human GMS-10 cell growth in a cell viability assay.

Hs-578T = type: functional, cell-based, Homo sapiens; settings: Homo sapiens, Hs-578T
Description: SANGER: Inhibition of human Hs-578-T cell growth in a cell viability assay.

CaR-1 = type: functional, cell-based, Homo sapiens; settings: Homo sapiens, CaR-1;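 further: growth inhibition of human CaR-1 cancer cells, read out with a cell viability assay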
Description: SANGER: Inhibition of human CaR-1 cell growth in a cell viability assay.

NCI-H596 = type: functional, cell-based, Homo sapiens; settings: Homo sapiens, NCI-H596;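 further: growth inhibition of NCI-H596 cells, read out with a cell viability assay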
Description: SANGER: Inhibition of human NCI-H596 cell growth in a cell viability assay.

COLO-679 = type: functional, cell-based, Homo sapiens; settings: Homo sapiens, COLO-679
Description: SANGER: Inhibition of human COLO-679 cell growth in a cell viability assay.

A2780 = type: functional, cell-based, Homo sapiens; settings: Homo sapiens, A2780;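 further: growth inhibition of A2780 cells, read out with a cell viability assay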
Description: SANGER: Inhibition of human A2780 cell growth in a cell viability assay.

NCI-H1793 = type: functional, cell-based, Homo sapiens; settings: Homo sapiens, NCI-H1793;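 further: cell growth inhibition, read out by a cell viability assay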
Description: SANGER: Inhibition of human NCI-H1793 cell growth in a cell viability assay.

PC-14 = type: functional, cell-based, Homo sapiens; settings: Homo sapiens, PC-14;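 further: cell viability assay measuring inhibition of PC-14 cell growth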
Description: SANGER: Inhibition of human PC-14 cell growth in a cell viability assay.

DOK = type: functional, cell-based, Homo sapiens; settings: Homo sapiens, DOK;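 further: cell viability assay read-out, values reflect inhibition of cell growth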
Description: SANGER: Inhibition of human DOK cell growth in a cell viability assay.

RPMI-7951 = type: functional, cell-based, Homo sapiens; settings: Homo sapiens, RPMI-7951
Description: SANGER: Inhibition of human RPMI-7951 cell growth in a cell viability assay.

NCI-H2122 = type: functional, cell-based, Homo sapiens; settings: Homo sapiens, NCI-H2122;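 further: growth inhibition of the cells, read out with a cell viability assay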
Description: SANGER: Inhibition of human NCI-H2122 cell growth in a cell viability assay.

HuO-3N1 = type: functional, cell-based, Homo sapiens; settings: Homo sapiens, HuO-3N1;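 further: cell viability readout used to measure how strongly compounds suppress proliferation of human HuO-3N1 cells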
Description: SANGER: Inhibition of human HuO-3N1 cell growth in a cell viability assay.

U-118-MG = type: functional, cell-based, Homo sapiens; settings: Homo sapiens, U-118-MG
Description: SANGER: Inhibition of human U-118-MG cell growth in a cell viability assay.

TCC-SUP = type: functional, cell-based, Homo sapiens; settings: Homo sapiens, TCC-SUP;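 further: growth inhibition of TCC-SUP cells, read out with a cell viability assay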
Description: SANGER: Inhibition of human TCCSUP cell growth in a cell viability assay.

CHL-1 = type: functional, cell-based, Homo sapiens; settings: Homo sapiens, CHL-1;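 further: cell growth inhibition, read out with a cell viability assay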
Description: SANGER: Inhibition of human CHL-1 cell growth in a cell viability assay.

SK-HEP1 = type: functional, cell-based, Homo sapiens, SK-HEP-1; settings: Homo sapiens, SK-HEP1;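 further: cell viability readout used to quantify reduction in proliferation of human SK-HEP-1 cells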
Description: SANGER: Inhibition of human SK-HEP-1 cell growth in a cell viability assay.

HOP-92 = type: functional, cell-based, Homo sapiens; settings: Homo sapiens, HOP-92;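 further: cell viability readout, with IC50 reflecting inhibition of HOP-92 cell growth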
Description: SANGER: Inhibition of human HOP-92 cell growth in a cell viability assay.

T47D = type: functional, cell-based, Homo sapiens; settings: Homo sapiens, T47D;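 further: growth inhibition of human T47D cells, measured with a cell viability assay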
Description: SANGER: Inhibition of human T47D cell growth in a cell viability assay.

NCI-H292 = type: functional, cell-based, Homo sapiens; settings: Homo sapiens, NCI-H292;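 further: growth inhibition of NCI-H292 cells, read out with a cell viability assay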
Description: SANGER: Inhibition of human NCI-H292 cell growth in a cell viability assay.

SW780 = type: functional, cell-based, Homo sapiens; settings: Homo sapiens, SW780;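 further: growth inhibition of the cells, read out with a cell viability assay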
Description: SANGER: Inhibition of human SW780 cell growth in a cell viability assay.

CAL-27 = type: functional, cell-based, Homo sapiens; settings: Homo sapiens, CAL-27;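 further: Viability-based readout, IC50 reflecting inhibition of CAL-27 cell growth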
Description: SANGER: Inhibition of human CAL-27 cell growth in a cell viability assay.

SW1710 = type: functional, cell-based, Homo sapiens; settings: Homo sapiens, SW1710;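 further: growth inhibition of SW1710 cells, determined with a cell viability assay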
Description: SANGER: Inhibition of human SW1710 cell growth in a cell viability assay.

8305C = type: functional, cell-based, Homo sapiens; settings: Homo sapiens, 8305C
Description: SANGER: Inhibition of human 8305C cell growth in a cell viability assay.

COR-L105 = type: functional, cell-based, Homo sapiens; settings: Homo sapiens, COR-L105;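 further: cell growth inhibition determined with a viability assay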
Description: SANGER: Inhibition of human COR-L105 cell growth in a cell viability assay.

HCT-15 = type: functional, cell-based, Homo sapiens; settings: Homo sapiens, HCT-15;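 further: cell viability readout, IC50 reflecting suppression of HCT-15 cell growth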
Description: SANGER: Inhibition of human HCT-15 cell growth in a cell viability assay.

A2058 = type: functional, cell-based, Homo sapiens; settings: Homo sapiens, A2058;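 further: reduction of A2058 cell growth, read out with a viability assay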
Description: SANGER: Inhibition of human A2058 cell growth in a cell viability assay.

NCI-H650 = type: functional, cell-based, Homo sapiens; settings: Homo sapiens, NCI-H650;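 further: growth inhibition of NCI-H650 cells, read out by a viability assay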
Description: SANGER: Inhibition of human NCI-H650 cell growth in a cell viability assay.

NCI-H441 = type: functional, cell-based, Homo sapiens; settings: Homo sapiens, NCI-H441;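 further: growth inhibition of NCI-H441 cells, read out with a cell viability assay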
Description: SANGER: Inhibition of human NCI-H441 cell growth in a cell viability assay.

NCI-H727 = type: functional, cell-based, Homo sapiens; settings: Homo sapiens, NCI-H727;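 further: growth inhibition of human NCI-H727 cells, read out with a cell viability assay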
Description: SANGER: Inhibition of human NCI-H727 cell growth in a cell viability assay.

NCI-H358 = type: functional, cell-based, Homo sapiens; settings: Homo sapiens, NCI-H358;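 further: growth inhibition of NCI-H358 human cells, read out with a cell viability assay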
Description: SANGER: Inhibition of human NCI-H358 cell growth in a cell viability assay.

YKG-1 = type: functional, cell-based, Homo sapiens; settings: Homo sapiens, YKG-1;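 further: cell growth inhibition, read out with a viability assay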
Description: SANGER: Inhibition of human YKG-1 cell growth in a cell viability assay.

BEN = type: functional, cell-based, Homo sapiens; settings: Homo sapiens, BEN;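 further: growth inhibition of the BEN cell line, read out with a cell viability assay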
Description: SANGER: Inhibition of human BEN cell growth in a cell viability assay.

SIMA = type: functional, cell-based, Homo sapiens; settings: Homo sapiens, SIMA;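 further: growth inhibition of SIMA cells, measured with a cell viability readout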
Description: SANGER: Inhibition of human SIMA cell growth in a cell viability assay.

**Q.** Which results are given for `CS(=O)(=O)c1ccc(C(=O)Nc2ccc(Cl)c(-c3ccccn3)c2)c(Cl)c1` [VISMODEGIB]?
**A.** IC50 (AGS): > 10 µM; IC50 (HTC-C3): > 10 µM; IC50 (OE33): > 10 µM; IC50 (NCI-H1651): > 10 µM; IC50 (SCC-4): > 10 µM; IC50 (UACC-893): > 10 µM; IC50 (NCI-H2030): > 10 µM; IC50 (A-427): > 10 µM; IC50 (GMS-10): > 10 µM; IC50 (Hs-578T): > 10 µM; IC50 (CaR-1): > 10 µM; IC50 (NCI-H596): > 10 µM; IC50 (COLO-679): > 10 µM; IC50 (A2780): > 10 µM; IC50 (NCI-H1793): > 10 µM; IC50 (PC-14): > 10 µM; IC50 (DOK): > 10 µM; IC50 (RPMI-7951): > 10 µM; IC50 (NCI-H2122): > 10 µM; IC50 (HuO-3N1): 9.6 µM; IC50 (U-118-MG): > 10 µM; IC50 (TCC-SUP): > 10 µM; IC50 (CHL-1): > 10 µM; IC50 (SK-HEP1): > 10 µM; IC50 (HOP-92): > 10 µM; IC50 (T47D): > 10 µM; IC50 (NCI-H292): > 10 µM; IC50 (SW780): > 10 µM; IC50 (CAL-27): > 10 µM; IC50 (SW1710): > 10 µM; IC50 (8305C): > 10 µM; IC50 (COR-L105): > 10 µM; IC50 (HCT-15): > 10 µM; IC50 (A2058): > 10 µM; IC50 (NCI-H650): > 10 µM; IC50 (NCI-H441): > 10 µM; IC50 (NCI-H727): > 10 µM; IC50 (NCI-H358): > 10 µM; IC50 (YKG-1): > 10 µM; IC50 (BEN): > 10 µM

**Q.** `CC(C)CCN1c2nc(Nc3cc(F)c(O)c(F)c3)ncc2N(C)C(=O)C1C` (stereo unspecified) was tested. Which IC50 (AGS) did it give?
**A.** 2.34 µM

**Q.** And the IC50 (HTC-C3)?
**A.** > 5 µM

**Q.** And the IC50 (OE33)?
**A.** > 5 µM

**Q.** And the IC50 (NCI-H1651)?
**A.** > 5 µM

**Q.** And the IC50 (SCC-4)?
**A.** 3.09 µM

**Q.** What about the IC50 (UACC-893) of the same molecule?
**A.** > 5 µM

**Q.** What about the IC50 (NCI-H2030) of the same molecule?
**A.** > 5 µM

**Q.** What about the IC50 (A-427) of the same molecule?
**A.** 3.11 µM

**Q.** And the IC50 (GMS-10)?
**A.** 3.09 µM

**Q.** And the IC50 (Hs-578T)?
**A.** > 5 µM

**Q.** What about the IC50 (CaR-1) of the same molecule?
**A.** > 5 µM

**Q.** What about the IC50 (NCI-H596) of the same molecule?
**A.** > 5 µM

**Q.** What about the IC50 (COLO-679) of the same molecule?
**A.** > 5 µM

**Q.** What about the IC50 (A2780) of the same molecule?
**A.** > 5 µM

**Q.** What about the IC50 (NCI-H1793) of the same molecule?
**A.** > 5 µM

**Q.** What about the IC50 (PC-14) of the same molecule?
**A.** > 5 µM

**Q.** What about the IC50 (DOK) of the same molecule?
**A.** 3.77 µM

**Q.** And the IC50 (RPMI-7951)?
**A.** 3.4 µM

**Q.** What about the IC50 (NCI-H2122) of the same molecule?
**A.** > 5 µM

**Q.** What about the IC50 (HuO-3N1) of the same molecule?
**A.** > 5 µM

**Q.** What about the IC50 (U-118-MG) of the same molecule?
**A.** > 5 µM

**Q.** What about the IC50 (TCC-SUP) of the same molecule?
**A.** > 5 µM

**Q.** What about the IC50 (CHL-1) of the same molecule?
**A.** 1.96 µM

**Q.** What about the IC50 (SK-HEP1) of the same molecule?
**A.** > 5 µM

**Q.** What about the IC50 (HOP-92) of the same molecule?
**A.** > 5 µM

**Q.** What about the IC50 (T47D) of the same molecule?
**A.** > 5 µM

**Q.** And the IC50 (NCI-H292)?
**A.** 1.46 µM

**Q.** And the IC50 (SW780)?
**A.** > 5 µM

**Q.** What about the IC50 (CAL-27) of the same molecule?
**A.** > 5 µM

**Q.** What about the IC50 (SW1710) of the same molecule?
**A.** 2.31 µM

**Q.** And the IC50 (8305C)?
**A.** 3.89 µM

**Q.** What about the IC50 (COR-L105) of the same molecule?
**A.** > 5 µM

**Q.** And the IC50 (HCT-15)?
**A.** > 5 µM

**Q.** And the IC50 (A2058)?
**A.** > 5 µM

**Q.** And the IC50 (NCI-H650)?
**A.** > 5 µM

**Q.** And the IC50 (NCI-H441)?
**A.** > 5 µM

**Q.** What about the IC50 (NCI-H727) of the same molecule?
**A.** > 5 µM

**Q.** What about the IC50 (NCI-H358) of the same molecule?
**A.** > 5 µM

**Q.** What about the IC50 (YKG-1) of the same molecule?
**A.** 1.98 µM

**Q.** And the IC50 (BEN)?
**A.** > 5 µM

**Q.** Which results are given for `CC(C)c1ccccc1Cc1cc(C(=O)Nc2ccc(S(=O)(=O)c3ccccc3C(C)(C)C)cc2)c(O)c(O)c1O`?
**A.** IC50 (AGS): 0.0375 µM; IC50 (HTC-C3): 1.58 µM; IC50 (OE33): 0.695 µM; IC50 (NCI-H1651): 1 µM; IC50 (SCC-4): 1.3 µM; IC50 (UACC-893): 1.43 µM; IC50 (NCI-H2030): 2.81 µM; IC50 (A-427): 0.0447 µM; IC50 (GMS-10): 0.443 µM; IC50 (Hs-578T): 0.0236 µM; IC50 (SIMA): 0.664 µM; IC50 (CaR-1): 5.93 µM; IC50 (NCI-H596): 3.32 µM; IC50 (COLO-679): 0.234 µM; IC50 (A2780): 0.218 µM; IC50 (NCI-H1793): 0.745 µM; IC50 (PC-14): 0.331 µM; IC50 (DOK): 1.34 µM; IC50 (RPMI-7951): 0.888 µM; IC50 (NCI-H2122): 0.538 µM; IC50 (HuO-3N1): 2.03 µM; IC50 (U-118-MG): 0.19 µM; IC50 (TCC-SUP): 0.361 µM; IC50 (CHL-1): 0.0119 µM; IC50 (SK-HEP1): 1.51 µM; IC50 (HOP-92): 0.358 µM; IC50 (T47D): 0.691 µM; IC50 (NCI-H292): 0.36 µM; IC50 (SW780): 5.8 µM; IC50 (CAL-27): 0.136 µM; IC50 (SW1710): 0.388 µM; IC50 (8305C): 3.91 µM; IC50 (COR-L105): 0.711 µM; IC50 (HCT-15): 0.202 µM; IC50 (A2058): 0.367 µM; IC50 (NCI-H650): 0.646 µM; IC50 (NCI-H441): 1.73 µM; IC50 (NCI-H727): 0.941 µM; IC50 (NCI-H358): 1.49 µM; IC50 (YKG-1): 0.0298 µM; IC50 (BEN): 7.41 µM
